The conditions of series [1]: rats after transient middle cerebral artery occlusion; cited from earlier work.
In series [2] the test system is hPLA2-II-induced neuronal cell death. Description: MTT reduction assay of neuronal survival after hPLA2-II treatment. The class given is cell-based, Sprague-Dawley rat. On the procedure:
(§1) According to a method disclosed in Neurosci. Lett. 203, 175-178 Ueda K. et al, Neuronal cultures were prepared from cerebral cortex of 19-day-old Sprague-Dawley rat embryos. The cerebral cortices were dissociated in isotonic buffer (137 mM NaCl, 5.4 mM KCl, 0.17 mM Na2HPO4, 0.22 mM KH2PO4, 5.5 mM Glucose, 59 mM Sucrose; volume of each buffer is 25 ml) with 4 mg/ml trypsin and 0.4 mg/ml deoxyribonuclease I. Cells were plated at a density of 2.5×10^5 cells/cm^2 on poly-L-lysine coated dishes in conditioning medium, Leibovitz's L-15 medium supplemented with 5% fetal calf serum and 5% horse serum. Culture medium was exchanged for conditioning medium containing 0.1 mM arabinosylcytosine C on day 1 after plating. Cultured neurons were used for the experiments on day 2 of culture.
For assessment of neurotoxicity of hPLA2-II according to a method disclosed in Neurosci. […] Absorbance at 570 nm were measured with a microplate reader.
[…] MTT reducing activity was determined 48 hr after hPLA2-II-treatment.
At the indicated time after the treatment with hPLA2-II (1 μM), the compound prepared in Example 2 (final concentration=10 μM) was added to the culture medium. Data are expressed as mean±SEM values (n=4). *P<0.05, **P<0.01, compared with vehicle-treated conditions by ANOVA followed by Dunnett's test. […]
In general terms: Tetrazolium assays rely on reduction of a dye to a coloured formazan, in cell work by metabolically active cells.

Another series deals with cortical neurons. Description: Ultrastructural changes in cortical neurons after hPLA2-II treatment (electron microscope). Particulars: treated for 48 h. It counts as cell-based, Sprague-Dawley rat. On the procedure:
as §1
Cells were treated with hPLA2-II for 48 h, and fixed in situ in 1-5% (especially 2.5%) glutaraldehyde in PBS for 2 h at 4° C. and post-fixed in 0.5-2% (especially 1% osmium tetraoxide). To increase contrast, cells were double-fixed in saturated thiocarbohydrazide-osmium. Afterwards, samples were dehydrated using a graded series of ethanol from 50-100%. Tissue culture dishes were embedded in Araldite or Epoxy resin (especially Epon 812), cured in vacuo for 48 h at 60-70° C. and sectioned. […]

As to `CCN(CC)CCCC(C)Nc1c2ccc(Cl)cc2nc2ccc(OC)cc12` (centres unmarked) [quinacrine], the infarct-size result in series [1] is reported as “reduces infarct-size”. Turning to `CCc1c(C(=O)C(N)=O)c2c(OCC(=O)O)cccn2c1Cc1ccccc1-c1ccccc1` [Example 2, (8-(Carboxymethyloxy)-2-ethyl-3-(o-phenylbenzyl)indolizin-1-yl)glyoxylamide], the “time after hPLA2-II treatment within which post-treatment with compound suppressed neuronal death completely” value in series [2] (1 μM hPLA2-II, compound added at 10 μM final concentration at indicated time after hPLA2-II, FIG. 3) was at most 10 h. `CCc1c(C(=O)C(N)=O)c2c(OCC(=O)O)cccc2n1Cc1ccccc1` [Example 1, [[3-(2-Amino-1,2-dioxoethyl)-2-ethyl-1-(phenylmethyl)-1H-indol-4-yl]oxy]acetic acid]: the “suppression of hPLA2-II-induced neuronal death (MTT reducing activity), co-treatment” value in series [2] (3 μM hPLA2-II, 48 well-cultured neuron, FIG. 4) is listed as “suppressed neuronal death completely depending on its concentration”.

B1: hPLA2-II: human PLA2-II, used to induce neuronal death in cultured cortical neurons (protein, UniProt P14555 21-144, looked up)
Phospholipase A2, membrane …: NLVNFHRMIKLTTGKEAALSYGFYGCHCGVGGRGSPKDATDRCCVTHDCCYKRLEKRGCGTKFLSYKFSNSGSRITCAKQDSCRSQLCECDKAAATCFARNKTTYNKKYQYYSNKHCRGSTPRC
Turning to B1, the “morphology of neurons (cell bodies, neurites) after hPLA2-II treatment” value with cortical neurons (compared with untreated neurons) was “shrank cell bodies and lost their neurites”. Also, the “ultrastructural changes of neurons after hPLA2-II treatment” value in the series on cortical neurons (electron microscope, compared with untreated cells, FIG. 1B) was “condensation and fragmentation of nuclear chromatin, lost of intracellular organelle other than mitochondria and blebbing of plasma membranes”.

Source of the values: patent US20030149000A1, “Method for the treatment of disorders associated with apoptosis using N-heterocyclic glyoxylamide compounds” (Shionogi & Co., Ltd., priority 1998, published 2003).
